Molecules are shown by their SMILES. Values after ≈ are worked out from the molar mass of the structure shown. Bounds are passed on as bounds.

We go through one compound from publication PMC8092876, “A Leucyl-tRNA Synthetase Inhibitor with Broad-Spectrum Antimycobacterial Activity” (Antimicrobial Agents and Chemotherapy, 2021).

Data set [1] relates to M. abscessus Bamboo. Format: cell-based.
The test system of data set [2] is M. intracellulare ATCC 13950. Briefly: MIC assay in 96-well plate format. Format: cell-based. Conditions: Mycobacterium intracellulare, ATCC13950; M. intracellulare ATCC 13950, culture collection reference strain.
The subject of data set [3] is M. abscessus Bamboo RM1 (LeuS A428P). Briefly: microbe, parasite or virus in culture. Conditions: Mycobacteroides abscessus. The data set is classed as cell-based.
Data set [4] concerns M. abscessus subsp. abscessus ATCC 19977. The data set can be described thus: MIC assay in 96-well plate format. Format: cell-based. Conditions: Mycobacteroides abscessus, ATCC19977; M. abscessus subsp. abscessus ATCC 19977, culture collection reference strain.
The next data set is described as follows: Stability in microsomes. The data set is classed as in vitro ADME. The procedure: Intrinsic clearance (CLi) values were determined in mouse and human liver microsomes. Test compounds (final concentration 0.5 μM) were incubated at 37°C for 30 min in 50 mM potassium phosphate buffer (pH 7.4) containing 0.5 mg microsomal protein/ml. The reaction was started by addition of cofactor NADPH. At 0, 5, and 20 min, an aliquot (90 μl) was taken, quenched with acetonitrile-methanol containing an appropriate internal standard, centrifuged, and analyzed by liquid chromatography-tandem mass spectrometry (LC-MS/MS). The intrinsic clearance (CLi) was determined using the following equation: CLi = k(ml of incubation/mg microsomal protein) × (mg microsomal protein/g liver)where k is the turnover rate constant of the ln(% remaining compound) versus time regression and mg microsomal protein/g liver is 52.5 for both mouse and human.

The test system of data set [5] is M. abscessus Bamboo RM5 (LeuS V417M). The data set can be described thus: microbe, parasite or virus in culture. Format: cell-based. Conditions: RM5, batch 2, LeuS V417M.
Data set [6] concerns M. abscessus Bamboo. The data set can be described thus: MIC and MBC determination in culture tubes (planktonic).
Method: M. abscessus Bamboo culture was grown to mid-log-phase (OD600 = 0.4 to 0.6) and diluted to OD600 = 0.1 (1 × 10^7 CFU/ml). Aliquots of 1.2 ml of the resulting bacteria suspension were transferred into 14 ml vented, round-bottom tubes (Thermo Fisher 150268, Rochester, NY, United States). A 10-point 2-fold dilution series of the compound was prepared, starting at 100 times the desired highest concentration. The compound concentration range tested was 100 to 0.195 μM. For each drug concentration tested, 12 μl of drug stock was added to two tubes and vortexed. Aliquots of 12 μl of DMSO were added to two tubes as the untreated controls (1% final DMSO concentration). From each tube, 200 μl was transferred to wells on a 96-well plate and the OD600 was measured using a Tecan Infinite M200 plate reader (day 0 reading). The tubes (1 ml final volume) were incubated on a tilted rack at 37°C on an orbital shaker at 220 rpm. On day 2, tubes were vortexed before transferring 200 μl onto a 96-well plate to measure the OD600 again (day 2 reading). To determine the MIC, day 0 and day 2 OD600 values were analyzed as previously described for MIC determination in 96-well plate format. To determine the MBC, CFU measurement was done for the OD600 = 0.1 bacteria suspension on day 0 and for each tube on day 2. Specifically, serial 10-fold dilutions were prepared in phosphate-buffered saline (Thermo Fisher 10010023) containing 0.025% Tween 80 (PBS/Tween 80) and plated on 7H10 agar. The MBC was defined as the lowest concentration of drug that reduced the CFU/ml value by 10-fold relative to the day 0 CFU/ml value.
The subject of data set [7] is M. abscessus subsp. abscessus M404. The data set can be described thus: MIC assay in 96-well plate format. Conditions: Mycobacteroides abscessus; M. abscessus subsp. abscessus M404, clinical isolate. Format: cell-based.
Data set [8] has as its system M. abscessus Bamboo. The data set can be described thus: MIC assay in 96-well plate format. The data set is classed as cell-based, M. abscessus subsp. abscessus. Conditions: Mycobacteroides abscessus.
Data set [9] relates to M. abscessus Bamboo RM2 (LeuS K502E). The data set can be described thus: microbe, parasite or virus in culture. The data set is classed as cell-based. Conditions: Mycobacteroides abscessus.
Data set [10] has as its system M. abscessus subsp. massiliense M111. The data set can be described thus: MIC assay in 96-well plate format. Conditions: Mycobacteroides abscessus; M. abscessus subsp. massiliense M111, clinical isolate. The data set is classed as cell-based.
In data set [11] the test system is M. abscessus subsp. abscessus K21. The data set can be described thus: MIC assay in 96-well plate format. The settings on record: Mycobacteroides abscessus; M. abscessus subsp. abscessus K21, clinical isolate, infection model. The data set is classed as cell-based.
The test system of data set [12] is M. abscessus subsp. bolletii M232. Briefly: MIC assay in 96-well plate format. The data set is classed as cell-based. The settings on record: Mycobacteroides abscessus; M. abscessus subsp. bolletii M232, clinical isolate.
For data set [13], the system named is M. abscessus subsp. abscessus M199. The data set can be described thus: MIC assay in 96-well plate format. The settings on record: Mycobacteroides abscessus; M. abscessus subsp. abscessus M199, clinical isolate. The data set is classed as cell-based.
Data set [14] relates to M. abscessus Bamboo biofilms. Briefly: Biofilm growth inhibition assay (biofilm MIC and MBC). The data set is classed as cell-based, M. abscessus subsp. abscessus. Conditions: Mycobacteroides abscessus. How it is done: The biofilm growth inhibition assay was performed as previously described ([40]). Innovotech MBEC 96-well biofilm assay plates (Innovotech 19111, Edmonton, AB, Canada) were used, and the supplier’s manual was followed with minor modifications. Mid-log-phase M. abscessus Bamboo precultures (OD600 = 0.4 to 0.6) were spun down at 3200 × g for 10 min at 25°C and washed with 7H9 medium without Tween 80 (7H9nt). Bacteria were resuspended into 25 ml 7H9nt to an OD600 of 0.0125 (1.0 × 10^6 CFU/ml). […] The lids with the pegs were transferred to a new MBEC multititer plate containing 150 μl of fresh 7H9nt medium per well without bacteria (0 h time point). After that, the pegs with growing biofilm were transferred once a day to a new multititer plate containing fresh 7H9nt medium. To measure growth of the biofilm formed on the peg, the pegs were washed in 200 μl of 7H9nt medium before they were aseptically removed and placed in 1.7 ml microcentrifuge tubes (VWR 87003-294, Rador, PA, United States) containing 500 μl PBS/Tween 80. The microcentrifuge tubes were vigorously vortexed at 2,000 rpm for 90 s at 25°C to detach the bacteria from the pegs before samples were serially diluted and plated for the determination of CFU/peg. […] The average drug-free biofilm growth was calculated by subtracting the average 24 h CFU/peg value from the average 72 h CFU/peg value for the untreated control pegs. The biofilm MIC was defined as the lowest drug concentration that reduced the CFU/peg by 90% relative to that of the average drug-free biofilm growth.

The test system of data set [15] is M. abscessus subsp. abscessus K21. The data set can be described thus: M. abscessus mouse infection model. Conditions: NOD SCID mice, intranasal infection, 10 mg/kg orally once daily for 10 days, day 11. Format: in vivo. How it is done:
In vivo efficacy determinations were carried out as described previously, using 8-week-old female NOD.CB17-Prkdc^scid/NCrCrl (NOD SCID) mice (Charles River Laboratories) and the M. abscessus subsp. abscessus K21 strain ([38]). Briefly, anesthetized animals were infected by intranasal delivery of ∼10^6 CFU of M. abscessus subsp. abscessus K21. Acute infection was achieved within 1 day. Drugs or the vehicle control were administered to NOD SCID mice once daily for 10 consecutive days by oral gavage, starting from 1 day postinfection. Clarithromycin was formulated in 0.4% methyl cellulose-sterile water and administered at a dose of 250 mg/kg. EC/11770 was formulated in 0.4% methyl cellulose-sterile water and administered at 10 mg/kg. All mice were euthanized 24 h after the last dose (11 days postinfection), and their lungs and spleen were aseptically removed prior to homogenization. The bacterial load in these organs was determined by plating serial dilutions of the organ homogenates onto Middlebrook 7H11 agar (BD Difco) supplemented with 0.2% (vol/vol) glycerol and 10% (vol/vol) oleic acid-albumin-dextrose-catalase (OADC). The agar plates were incubated for 5 days at 37°C prior to counting of colonies. […]

As to `CC(C)(O)COc1ccc(Br)c2c1B(O)O[C@@H]2CN` [EC/11770], the frequency of resistance with M. abscessus Bamboo [1] was 3.9 × 10^−8 /CFU. Further, the MIC in [2] was 0.37 µM (≈ 0.122 µg/mL); in data set [3] it was more than 100 µM; in data set [4], 0.7 µM (≈ 0.231 µg/mL); in data set [5] (Mycobacteroides abscessus), 60 to 75 µM (≈ 19.8 to 24.7 µg/mL); in [5], 75 µM (≈ 24.7 µg/mL); against M. abscessus Bamboo [6] (Mycobacteroides abscessus, 48 h), 3 µM (≈ 0.99 µg/mL). The MIC with M. abscessus Bamboo [6] (planktonic M. abscessus Bamboo in culture tubes, day 2) is 3.0 µM (≈ 0.99 µg/mL); in data set [7], 0.52 µM (≈ 0.172 µg/mL); in the data set on M. abscessus Bamboo [8], 0.9 µM (≈ 0.297 µg/mL); with M. abscessus Bamboo [8] (72 h, M. abscessus Bamboo, 7H9, 3 days, read-out: MIC) it was 1.2 µM (≈ 0.396 µg/mL); in the data set on M. abscessus Bamboo [8] (72 h, M. abscessus Bamboo, CAMH broth, 3 days, read-out: MIC) it was 0.7 µM (≈ 0.231 µg/mL); in [9], more than 100 µM. Also, the MIC in [10] came out at 0.95 µM (≈ 0.313 µg/mL); in data set [11], 0.6 µM (≈ 0.198 µg/mL); in [12] it was 0.67 µM (≈ 0.221 µg/mL); in data set [13], 0.93 µM (≈ 0.307 µg/mL); in [14] (48 h with drug, 90% reduction of CFU/peg growth) it was 3.1 µM (≈ 1.02 µg/mL). In addition, the “Human in vitro CLint” value in the data set “Stability in microsomes” (human hepatic microsomes) is <0.5 <0.5 ml/min/g tissue. Further, the “Mouse in vitro CLint” value in “Stability in microsomes” (mouse hepatic microsomes) is recorded as <0.5 <0.5 ml/min/g tissue. Also, the MBC against M. abscessus Bamboo [6] (Mycobacteroides abscessus) was more than 100 µM; in the data set with M. abscessus Bamboo [6] (planktonic M. abscessus Bamboo in culture tubes, day 2, 10-fold CFU/ml reduction vs day 0), more than 100 µM; in data set [14] (10-fold CFU/peg reduction vs 24 h) it was 50 µM (≈ 16.5 µg/mL). For the same compound, the “reduction in lung CFU” value in [15] is on record as 1.5 log.
